The subject of this experiment is passive cutaneous anaphylaxis (PCA) reaction. The experiment is described as follows: passive cutaneous anaphylaxis (PCA) test, i.v. or oral administration. In kind it is in vivo, male Charles River Wistar rats. The conditions noted are these: Rattus norvegicus, read-out: degree (%) of protection, PCA test. How it is done:
In the PCA test, normal animals are injected intradermally (i.d.) with antibodies contained in serum obtained from actively sensitized animals. The animals are then challenged intravenously with antigen mixed with a dye such as Evans' Blue. The increased capillary-permeability caused by the antigen-antibody reaction causes the dye to leak from the site of the antibody injection. The test animals are then asphyxiated and the intensity of the reaction determined by measuring the diameter and intensity of the blue coloration on the inner surface of the animals skin. […] The ability of agents to interfere with PCA reactions is measured in male Charles River Wistar rats, 170-210 g. […] Hyperimmune antisera to hen egg albumin is prepared according to Orange, et al., J. Exptl. […] Forty-eight hours prior to antigen challenge the reaginic antisera is injected intradermally (i.d.) into the shaved skin of a normal rat's back; 5 hours before challenge the hyperimmune antisera is similarly injected; 5 hours later, at a third site, 60 mcg. histamine dihydrochloride is injected i.d. as a check for antihistaminic and unspecific types of blockage; the compounds of the instant invention or saline are then administered i.v. and immediately followed by 2.5 mg. Evan's blue dye and 5 mg. egg albumin in saline. In the case of oral administration Evan's blue dye and egg albumen are given five minutes after administration of the drug. Thirty minutes later the animals are asphyxiated using chloroform and the skin of the back removed and reversed for observation. A score is assigned each injection site equal to the product of the diameter of the site in mm. and a grade of 0.1, 0.5, 1, 2, 3 or 4 proportional to intensity of dye coloration. The scores for a given injection site are summed for each group of 8 animals and compared to the saline treated controls. The difference is expressed as percent blockade due to the compound employed. […] Disodium cromoglycate, a commerial antiallergy agent, is included for comparison. [drawing 3]

Each structure is given as a SMILES string. Counter-ions that a name gives are not always drawn. Like-named read-outs stand apart in the source and are kept apart here.

21 molecules from patent US4044134A, “Fused pyrimidin-4(3H)-ones as antiallergy agents” (Pfizer Inc., priority 1976, dated 1977) can be followed below.

For the molecule `CCOC(=O)c1nc2nc3c(OC)cc(OC)cc3cc2c(=O)[nH]1` [COOC2 H5/H/H/OCH3/H/OCH3], where the note is “iv, I.V.”, the inhibition in vivo at 0.03 mg/kg amounted to 14% and the inhibition in vivo at 0.3 mg/kg was 38%. For the setting “iv, I.V., 3 mg/kg”, the inhibition in vivo at 3 mg/kg is 97%. Besides, the inhibition in vivo at 30 mg/kg (Oral) came out at 41%.
In the case of `O=c1[nH]cnc2nc3ccccc3cc12` [pyrimido[4,5-b]quinolin-4(3H)-one, reference compound], under “iv, I.V., 3 mg/kg”, the inhibition in vivo at 3 mg/kg was 33%.
With `CCCCOC(=O)c1nc2nc3cc(OC)c(OCc4ccccc4)cc3cc2c(=O)[nH]1` [COO-(n-C4 H9)/H/H/OC7 H7/OCH3/H], the inhibition in vivo at 0.03 mg/kg (iv, I.V.) turned out to be 57%. For the same molecule, the inhibition in vivo at 3 mg/kg (iv, I.V., 3 mg/kg) was found to be 100%. For the same molecule, the inhibition in vivo at 10 mg/kg (Oral, 10 mg/kg) was 12%.
`CCOC(=O)c1nc2ncccc2c(=O)[nH]1` [OC2 H5/H/H/H (Formula III), Ethyl Pyrido[2,3-d]Pyrimidin-4(3H)-One-2-Carboxylate]: for the setting “iv, I.V., 10 mg/kg”, the inhibition in vivo at 10 mg/kg was determined as 95%. Besides, the inhibition in vivo at 100 mg/kg (Oral) stood at 0%.
For the molecule `NC(=O)c1nc2nc3ccccc3cc2c(=O)[nH]1` [CONH2/H/H/H/H/H, Pyrimido[4,5-b]Quinolin-4(3H)-One-2-Carboxamide], under “iv, I.V., 3 mg/kg”, the inhibition in vivo at 3 mg/kg came to 98%. Further, the inhibition in vivo at 60 mg/kg (Oral) stood at 23%.
`CCOC(=O)c1nc2nc3ccccc3c(-c3ccccc3)c2c(=O)[nH]1` [COOC2 H5/C6 H5/H/H/H/H, Ethyl 5-Phenylpyrimido[4,5-b]Quinolin-4(3H)-One-2-Carboxylate]: under “iv, I.V.”, the inhibition in vivo at 0.1 mg/kg worked out at 9%, the inhibition in vivo at 0.3 mg/kg worked out at 51% and the inhibition in vivo at 1 mg/kg was found to be 95%. For the same molecule, the inhibition in vivo at 3 mg/kg (iv, I.V., 3 mg/kg) is 100%. Moreover, the inhibition in vivo at 1 mg/kg (Oral) was 0%. Also, the inhibition in vivo at 10 mg/kg (Oral, 10 mg/kg) amounted to 0%.
As for `CCOC(=O)c1nc2nc3cc(OCC)c(OC)cc3cc2c(=O)[nH]1` [COOC2 H5/H/H/OCH3/OC2 H5/H, Ethyl 7-methoxy-8-ethoxypyrimido[4,5-b]quinoline-4(3H)-one-2-carboxylate], the inhibition in vivo at 0.003 mg/kg (iv, I.V., 0.003 mg/kg) was found to be 66%. Also, under “iv, I.V.”, the inhibition in vivo at 0.01 mg/kg was 57%, the inhibition in vivo at 0.03 mg/kg is 85% and the inhibition in vivo at 0.1 mg/kg came to 94%. In addition, the inhibition in vivo at 3 mg/kg (iv, I.V., 3 mg/kg) came to 97%. Moreover, under “Oral”, the inhibition in vivo at 0.3 mg/kg is 31%, the inhibition in vivo at 1 mg/kg stood at 44% and the inhibition in vivo at 30 mg/kg was 80%. For the same molecule, the inhibition in vivo at 3 mg/kg (Oral, 3 mg/kg) was 52%. The inhibition in vivo at 10 mg/kg (Oral, 10 mg/kg) worked out at 73%.
As for `CCOC(=O)c1nc2cc3ccccc3cc2c(=O)[nH]1` [COOC2 H5/H/H/H/H (Formula II), ethyl Benzo[g]Quinazolin-4(3H)-One-2-Carboxylate], for the setting “iv, I.V., 10 mg/kg”, the inhibition in vivo at 10 mg/kg is 27%. Under “Oral”, the inhibition in vivo at 100 mg/kg was determined as 38%.
As to `CCOC(=O)c1nc2nc3cc(OC)c(OC(C)=O)cc3cc2c(=O)[nH]1` [COOC2 H5/H/H/CH3 COO/OCH3/H, Ethyl 7-Acetoxy-8-Methoxypyrimido[4,5-b]Quinolin-4(3H)One-2-Carboxylate p-Toluenesulfonate], where the note is “iv”, the inhibition in vivo at 0.003 mg/kg stood at 53% and the inhibition in vivo at 3 mg/kg turned out to be 100%. In addition, under “po”, the inhibition in vivo at 10 mg/kg came to 40%.
As for `CCOC(=O)c1nc2nc3ccc(Cl)cc3cc2c(=O)[nH]1` [COOC2 H5/H/H/Cl/H/H, Ethyl 7-Chloropyrimido[4,5-b]quinolin-4(3H)-one-2-carboxylate], where the note is “iv, I.V.”, the inhibition in vivo at 0.03 mg/kg was found to be 0% and the inhibition in vivo at 1 mg/kg was 70%.
Consider `CCOC(=O)c1nc2nc3ccc(OC)cc3cc2c(=O)[nH]1` [COOC2 H5/H/H/OCH3/H/H, Ethyl 7-Methoxypyrimido[4,5-b]-Quinolin-4(3H)-One-2-Carboxylate], for which, under “iv, I.V.”, the inhibition in vivo at 0.1 mg/kg amounted to 68% and the inhibition in vivo at 0.3 mg/kg was 87%. Where the note is “iv, I.V., 3 mg/kg”, the inhibition in vivo at 3 mg/kg turned out to be 100%. In addition, for the setting “Oral, 3 mg/kg”, the inhibition in vivo at 3 mg/kg was 32%. Besides, under “Oral, 10 mg/kg”, the inhibition in vivo at 10 mg/kg turned out to be 43%.
Consider `CCOC(=O)c1nc2nc3cc(F)ccc3cc2c(=O)[nH]1` [COOC2 H5/H/H/H/F/H, Ethyl 8-fluoropyrimido[4,5-b]quinolin-4(3H)-one-2-carboxylate], for which the inhibition in vivo at 0.1 mg/kg (iv, I.V.) was 2%.
Regarding `CCCCOc1cc2nc3nc(C(=O)OCC)[nH]c(=O)c3cc2cc1OCC` [COOC2 H5/H/H/OC2 H5/O-(n-C4 H9)/H], under “iv, I.V.”, the inhibition in vivo at 0.03 mg/kg stood at 0%, the inhibition in vivo at 0.1 mg/kg was 28%, the inhibition in vivo at 0.3 mg/kg was determined as 44% and the inhibition in vivo at 1 mg/kg turned out to be 95%. Under “iv, I.V., 3 mg/kg”, the inhibition in vivo at 3 mg/kg was 90%. The inhibition in vivo at 1 mg/kg (Oral) came to 3%. In addition, the inhibition in vivo at 3 mg/kg (Oral, 3 mg/kg) turned out to be 43%. In addition, the inhibition in vivo at 10 mg/kg (Oral, 10 mg/kg) was 67%.
For `CCOC(=O)c1nc2nc3c(OC)c(OC)ccc3cc2c(=O)[nH]1` [COOC2 H5/H/H/H/OCH3/OCH3, Ethyl 8,9-Dimethoxypyrimido[4,5-b]-Quinolin-4(3H)-One-2-Carboxylate], the inhibition in vivo at 0.3 mg/kg (iv, I.V.) was found to be 39%. The inhibition in vivo at 3 mg/kg (iv, I.V., 3 mg/kg) came out at 100%. For the same molecule, for the setting “Oral, 10 mg/kg”, the inhibition in vivo at 10 mg/kg is 0%. In addition, the inhibition in vivo at 60 mg/kg (Oral) was 26%.
As for `CCOC(=O)c1nc2nc3c(OC)ccc(OC)c3cc2c(=O)[nH]1` [COOC2 H5/H/OCH3/H/H/OCH3], under “iv, I.V.”, the inhibition in vivo at 0.03 mg/kg was 0% and the inhibition in vivo at 0.3 mg/kg turned out to be 25%. Under “iv, I.V., 3 mg/kg”, the inhibition in vivo at 3 mg/kg worked out at 100%. The inhibition in vivo at 30 mg/kg (Oral) came to 23%.
With `CCOC(=O)c1nc2nc3ccc(O)cc3cc2c(=O)[nH]1` [COOC2 H5/H/H/OH/H/H, ethyl 7-hydroxypyrimido [4,5-b]quinolin-4(3H)one-2-carboxylate hemitrifluoroacetate], for the setting “iv, I.V.”, the inhibition in vivo at 0.03 mg/kg was determined as 21% and the inhibition in vivo at 0.3 mg/kg was 92%. Further, the inhibition in vivo at 3 mg/kg (Oral, 3 mg/kg) was 4%. For the same molecule, the inhibition in vivo at 10 mg/kg (Oral, 10 mg/kg) was found to be 13%.
In the case of `CCOC(=O)c1nc2nc3cc(OC)c(OCC)cc3cc2c(=O)[nH]1` [COOC2 H5/H/H/OC2 H5/OCH3/H], the inhibition in vivo at 0.003 mg/kg (iv, I.V., 0.003 mg/kg) came to 50%. Further, where the note is “iv, I.V.”, the inhibition in vivo at 0.01 mg/kg worked out at 72%, the inhibition in vivo at 0.03 mg/kg turned out to be 85% and the inhibition in vivo at 0.1 mg/kg was found to be 99%. Moreover, for the setting “iv, I.V., 3 mg/kg”, the inhibition in vivo at 3 mg/kg was found to be 100%. Further, for the setting “Oral”, the inhibition in vivo at 0.3 mg/kg is 56% and the inhibition in vivo at 1 mg/kg is 76%. In addition, the inhibition in vivo at 3 mg/kg (Oral, 3 mg/kg) amounted to 83%. The inhibition in vivo at 10 mg/kg (Oral, 10 mg/kg) was found to be 92%.
As to `CCOC(=O)c1nc2nc3cc(OC)c(O)cc3cc2c(=O)[nH]1` [COOC2 H5/H/H/OH/OCH3/H, Ethyl 7-Hydroxy-8-Methoxypyrimido[4,5-b]Quinolin-4(3H)One-2-Carboxylate Trifluoroacetate], the inhibition in vivo at 0.0003 mg/kg (iv, I.V., 0.0003 mg/kg) was determined as 38%. The inhibition in vivo at 0.003 mg/kg (iv, I.V., 0.003 mg/kg) is 94%. Also, under “iv, I.V.”, the inhibition in vivo at 0.01 mg/kg worked out at 98% and the inhibition in vivo at 0.03 mg/kg turned out to be 97%. For the same molecule, the inhibition in vivo at 30 mg/kg (Oral) came out at 6%.
Take `CCOC(=O)c1nc2nc3ccc(OCc4ccccc4)cc3cc2c(=O)[nH]1` [COOC2 H5/H/H/OC7 H7/H/H, ethyl 7-benzyloxypyrimido-[4,5-b]quinolin-4(3H) one-2-carboxylate]: the inhibition in vivo at 0.3 mg/kg (iv, I.V.) is 23%. Further, the inhibition in vivo at 3 mg/kg reads like this: (iv, I.V., 3 mg/kg) 85%; (Oral, 3 mg/kg) 3%. Further, the inhibition in vivo at 10 mg/kg (Oral, 10 mg/kg) came to 60%.
For the molecule `CCOC(=O)c1nc2nc3cccc(Cl)c3cc2c(=O)[nH]1` [COOC2 H5/H/Cl/H/H/H, Ethyl 6-Chloropyrimido[4,5-b]Quinolin-4(3H)-One-2-Carboxylate], where the note is “iv, I.V.”, the inhibition in vivo at 0.03 mg/kg amounted to 11% and the inhibition in vivo at 1 mg/kg was 96%. Further, under “Oral”, the inhibition in vivo at 30 mg/kg was 57%.
Regarding `CCc1nc2nc3cc(OC)c(OC)cc3cc2c(=O)[nH]1` [C2 H5/H/H/OCH3/OCH3/H, 2-Ethyl-7,8-Dimethoxypyrimidin[4,5-b]quinolin-4(SH)-One], for the setting “iv, I.V., 3 mg/kg”, the inhibition in vivo at 3 mg/kg is 56%. Also, the inhibition in vivo at 60 mg/kg (Oral) turned out to be 0%.
